The values below come from patent US5455356A, “Fungicidal 1-aryl-1-[α-(triazolyl)alkyl]-1-silacycloalkanes and their preparation methods” (priority 1993, dated 1995).

Type in all cases: cell-based
Assay [1] deals with Botritis cinerea. The assay can be described thus: In vitro mycelial/spore growth on potato-sucrose-agar, percent disease control (BC). As to conditions: read-out: % controlled, BC. In a few lines: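 Compounds dissolved in acetone (10% of final volume) then water to 100 and 50 ppm, mixed into potato-sucrose-agar, and B. cinerea spotted centrally. After several days in a growth room, percent disease control calculated from spore growth radii.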

The subject of assay [2] is Fusarium moniliforme. The assay can be described thus: In vitro mycelial/spore growth on potato-sucrose-agar, percent disease control (FM). As to conditions: Fusarium verticillioides, Fusarium moniliforme, read-out: % controlled, FM. In a few lines:
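Compounds at 100 and 50 ppm, in water containing 10% acetone, were mixed into potato-sucrose agar, and the fungus was spotted centrally. Plates were incubated several days in a growth room. Percent control was derived from growth radii.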

Assay [3] deals with Phytophthora capsisi. The assay can be described thus: In vitro mycelial/spore growth on potato-sucrose-agar, percent disease control (PC). As to conditions: read-out: % controlled, PC. In a few lines:
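Compounds at 100 ppm and 50 ppm (10% acetone in water) mixed into potato-sucrose-agar, with the fungus spotted at the centre and incubated for several days. Percent control derived from the radii of spore growth.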

In assay [4] the test system is Rhizoctonia solani. The assay can be described thus: In vitro mycelial/spore growth on potato-sucrose-agar, percent disease control (RS, first column). As to conditions: read-out: % controlled, RS. A digest of the protocol:
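Compounds applied at 100 ppm and 50 ppm (10% acetone in water), mixed into potato-sucrose-agar with fungus spotted centrally. Incubated several days in growth room. Percent disease control derived from radii of spore growth.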

Assay [5] relates to Rhizopus sp. The assay can be described thus: In vitro mycelial/spore growth on potato-sucrose-agar, percent disease control (RS, second column). As to conditions: read-out: % controlled, RS; for inhibition of growth at 50 ppm: Rhizopus sp.; for inhibition of growth at 200 ppm: Rhizopus. A digest of the protocol:
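Compound dissolved in acetone (10% of final volume) and water at 100 ppm and 50 ppm, mixed into potato-sucrose-agar. Rhizopus sp. spotted centrally and grown several days in a growth room; percent disease control derived from spore growth radii.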

Assay [6] has as its system Botryosphaeri. The assay can be described thus: In vitro mycelial/spore growth on potato-sucrose-agar, percent disease control (BD). As to conditions: read-out: % controlled, BD. A digest of the protocol: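 Compounds at 100 ppm and 50 ppm (10% acetone in water) mixed into potato-sucrose-agar, with Botryosphaeria spotted centrally and incubated for several days. Percent disease control calculated from growth radii.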

Assay [7] has as its system Pyricalaria oryzae. The assay can be described thus: In vitro mycelial/spore growth on potato-sucrose-agar, percent disease control (PO). As to conditions: read-out: % controlled, PO. In a few lines: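 Compounds at 100 ppm and 50 ppm (10% acetone in water) mixed into potato-sucrose-agar, with Pyricalaria oryzae spotted centrally. After several days' incubation in a growth room, percent disease control derived from spore growth radii.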

In assay [8] the test system is GC. The assay can be described thus: In vitro mycelial/spore growth on potato-sucrose-agar, percent disease control (GC). As to conditions: read-out: % controlled, GC; for inhibition of growth at 50 ppm: GC. A digest of the protocol:
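Compounds dissolved in acetone (10% of final volume) and water at 100 and 50 ppm, mixed into potato-sucrose-agar. Fungus spotted at plate centre and incubated several days in a growth room; percent disease control derived from the radii of growth.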

With `Clc1ccc([Si]2(Cn3cncn3)CCCC2)cc1` [1-(4-chlorophenyl)-1-(1H-1,2,4-triazole-1-yl)methyl-1-silacyclopentane], the inhibition of growth at 50 ppm in assay [1] came out at 100%; in assay [2] it was 100%; in assay [3] it was 15%; in assay [4], 95%; in assay [5] it was 67%; in assay [6] it was 70%. For the same compound, the inhibition of growth at 50 ppm in assay [7] and in assay [8] was 100% throughout. Also, the inhibition of growth at 200 ppm in assay [1] is 100%; in assay [2], 100%; in assay [3], 98%; in assay [4] it was 100%; in assay [5], 75%; in assay [6], 99%. In addition, the inhibition of growth at 200 ppm in assay [7] and in assay [8] was 100% in each case.
Take `CC(n1cncn1)[Si]1(c2ccc(F)cc2F)CCCCC1` (stereo not drawn) [1-(2,4-difluorophenyl)-1-[α-(1H-1,2,4-triazole-1-yl)ethyl]-1-silacyclohexane]: the inhibition of growth at 50 ppm in assay [1] was determined as 100%; in assay [2], 100%; in assay [3] it was 82%; in assay [4], 96%; in assay [5], 53%; in assay [6] it was 100%. Also, the inhibition of growth at 50 ppm in assay [7] and in assay [8] was 100% in each case. The inhibition of growth at 200 ppm came out at 100% in assay [1]; 100% in assay [2]; 100% in assay [3]; 100% in assay [4]; 79% in assay [5]; 100% in assay [6]. The inhibition of growth at 200 ppm in assay [7] and in assay [8] was 100% each time.
With `CC(n1cncn1)[Si]1(c2ccc(Cl)cc2Cl)CCCCC1` (stereo not drawn) [1-(2,4-dichlorophenyl)-1-[α-(1H-1,2,4-triazole-1-yl)ethyl]-1-silacyclohexane], the inhibition of growth at 50 ppm came to 100% in assay [1]; 100% in assay [2]; 64% in assay [3]; 100% in assay [4]; 54% in assay [5]; 100% in assay [6]. The inhibition of growth at 50 ppm in assay [7] and in assay [8] was 100% in each case. Moreover, the inhibition of growth at 200 ppm worked out at 100% in assay [1]; 100% in assay [2]; 100% in assay [3]; 100% in assay [4]; 60% in assay [5]; 100% in assay [6]. The inhibition of growth at 200 ppm in assay [7] and in assay [8] was 100% in each case.
In the case of `CC(n1cncn1)[Si]1(c2ccc(Cl)cc2Cl)CCCC1` (stereo not drawn) [1-(2,4-dichlorophenyl)-1-[α-(1H-1,2,4-triazole-1-yl)ethyl)-1-silacyclopentane], the inhibition of growth at 50 ppm came out at 92% in assay [1]; 100% in assay [2]; 83% in assay [3]; 69% in assay [4]; 68% in assay [5]; 95% in assay [6]. In addition, the inhibition of growth at 50 ppm in assay [7] and in assay [8] was 100% each time. The inhibition of growth at 200 ppm in assay [1] is 100%; in assay [2], 100%; in assay [3], 96%; in assay [4], 87%; in assay [5], 94%; in assay [6], 100%. Also, the inhibition of growth at 200 ppm in assay [7] and in assay [8] was 100% throughout.
As for `CC(n1cncn1)[Si]1(c2ccc(F)cc2F)CCCC1` (stereo not drawn) [1-(2,4-difluorophenyl)-1-[α-(1H-1,2,4-triazole-1-yl)ethyl]-1-silacyclopentane], the inhibition of growth at 50 ppm amounted to 100% in assay [1]; 100% in assay [2]; 45% in assay [3]; 79% in assay [4]; 78% in assay [5]; 100% in assay [6]. Further, the inhibition of growth at 50 ppm in assay [7] and in assay [8] was 100% throughout. In addition, the inhibition of growth at 200 ppm in assay [1] is 100%; in assay [2], 100%; in assay [3], 94%; in assay [4], 100%; in assay [5], 87%; in assay [6], 100%. Moreover, the inhibition of growth at 200 ppm in assay [7] and in assay [8] was 100% each time.
